Measurements: the supplement of paper PMC5908809

Experiments:
NKL (IL-2 2.5 ng/mL) [1] = assay: drug sensitivity score (DSS) (DSS units); higher = more sensitive; extreme values may be limits of the assay; details: 72 h
KAI3 (IL-2 2.5 ng/mL) [2] = assay: as above; details: 72 h
NK-92 (IL-2 2.5 ng/mL) [3] = assay: as above; details: 72 h
[4] = system: normal primary NK cells, pool 2 (3 donors) (IL-2 2.5 ng/mL); assay: as above; details: 72 h
DERL-7 (IL-2 2.5 ng/mL) [5] = assay: as above; details: 72 h
NK-YS (IL-2 2.5 ng/mL) [6] = assay: as above; details: 72 h
[7] = system: normal primary NK cells, pool 1 (3 donors), resting (IL-2 0 ng/mL); assay: as above; details: 72 h
KHYG-1 (IL-2 2.5 ng/mL) [8] = assay: as above; details: 72 h
[9] = system: normal primary NK cells, pool 3 (3 donors) (IL-2 2.5 ng/mL); assay: as above; details: 72 h
YT (IL-2 2.5 ng/mL) [10] = assay: as above; details: 72 h
[11] = system: normal primary NK cells, pool 1 (3 donors) (IL-2 2.5 ng/mL); assay: as above; details: 72 h
SNK-6 (IL-2 2.5 ng/mL) [12] = assay: as above; details: 72 h
IMC-1 (IL-2 20 ng/mL) [13] = assay: as above; details: 72 h
NKL (IL-2 2.5 ng/mL) [14] = assay: percent inhibition of viability; higher = more inhibition; details: 72 h
KAI3 (IL-2 2.5 ng/mL) [15] = assay: as above; details: 72 h
NK-92 (IL-2 2.5 ng/mL) [16] = assay: as above; details: 72 h
[17] = system: normal primary NK cells, pool 2 (3 donors) (IL-2 2.5 ng/mL); assay: as above; details: 72 h
DERL-7 (IL-2 2.5 ng/mL) [18] = assay: as above; details: 72 h
NK-YS (IL-2 2.5 ng/mL) [19] = assay: as above; details: 72 h
[20] = system: normal primary NK cells, pool 1 (3 donors), resting (IL-2 0 ng/mL); assay: as above; details: 72 h
KHYG-1 (IL-2 2.5 ng/mL) [21] = assay: as above; details: 72 h
[22] = system: normal primary NK cells, pool 3 (3 donors) (IL-2 2.5 ng/mL); assay: as above; details: 72 h
YT (IL-2 2.5 ng/mL) [23] = assay: as above; details: 72 h
[24] = system: normal primary NK cells, pool 1 (3 donors) (IL-2 2.5 ng/mL); assay: as above; details: 72 h
SNK-6 (IL-2 2.5 ng/mL) [25] = assay: as above; details: 72 h
IMC-1 (IL-2 20 ng/mL) [26] = assay: as above; details: 72 h
[27] = system: normal NK cells expanded with K562-aAPC; assay: drug sensitivity score (DSS) (DSS units); higher = more sensitive; extreme values may be limits of the assay; details: 72 h; IL-2 2.5 ng/mL
Description: (§1)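 Drug sensitivity and resistance testing on K562-aAPC-expanded normal NK cells: 5 concentrations (10-fold steps over a 10,000-fold range), 72 h at 37 °C, viability by CellTiter-Glo normalised to DMSO and benzethonium chloride controls; DSS from the fitted curve.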

[28] = system: normal NK cells expanded with K562-aAPC; assay: percent inhibition of viability; higher = more inhibition; details: 72 h, IL-2 2.5 ng/mL
Description: as §1

COc1ccc(C2=N[C@@H](c3ccc(Cl)cc3)[C@@H](c3ccc(Cl)cc3)N2C(=O)N2CCNC(=O)C2)c(OC(C)C)c1 [Nutlin-3] (max concentration tested 10000 nM)
Details | drug sensitivity score
DERL-7 (IL-2 2.5 ng/mL) [5] | 9.5
IMC-1 (IL-2 20 ng/mL) [13] | 0.61
KAI3 (IL-2 2.5 ng/mL) [2] | 7.56
KHYG-1 (IL-2 2.5 ng/mL) [8] | 0.02
NK-92 (IL-2 2.5 ng/mL) [3] | 2.8
NK-YS (IL-2 2.5 ng/mL) [6] | 9.5
NKL (IL-2 2.5 ng/mL) [1] | 3.64
SNK-6 (IL-2 2.5 ng/mL) [12] | 10.1
YT (IL-2 2.5 ng/mL) [10] | 6.81
[4] | 7.31
[7] | 14.5
[9] | 4.75
[11] | 9.16
[27] | 8.63

percent inhibition of viability [%]
Details | 1 nM | 10 nM | 100 nM | 1000 nM | 10000 nM
DERL-7 (IL-2 2.5 ng/mL) [18] | 0.15 | 0.54 | 7.5 | 29 | 99.3
IMC-1 (IL-2 20 ng/mL) [26] | -5.54 | -4.03 | -1.5 | -1.01 | 21.2
KAI3 (IL-2 2.5 ng/mL) [15] | -3.27 | -5.08 | 7.55 | 34.8 | 60.6
KHYG-1 (IL-2 2.5 ng/mL) [21] | -6.71 | -9.4 | -3.85 | -2.52 | 12.2
NK-92 (IL-2 2.5 ng/mL) [16] | -20.5 | 0.59 | -14.7 | 13 | 28.5
NK-YS (IL-2 2.5 ng/mL) [19] | -2.06 | -4.19 | 0.64 | 37.4 | 83.9
NKL (IL-2 2.5 ng/mL) [14] | 3.59 | -3.19 | 6.18 | 9.61 | 42.5
SNK-6 (IL-2 2.5 ng/mL) [25] | -8.93 | -12 | -4.65 | 42.5 | 85.7
YT (IL-2 2.5 ng/mL) [23] | -1.48 | -2.54 | 1.47 | 19.9 | 69.5
[17] | -11.5 | 9.9 | 0.22 | 13.9 | 90
[20] | -5.64 | 8.67 | 11.7 | 69 | 93.8
[22] | -6.84 | 5.45 | 0.48 | 4.02 | 75.6
[24] | -5.38 | 6.43 | 9.32 | 29 | 96.8
[28] | -4.98 | 0.87 | 1.74 | 19.4 | 99.2

CC[C@H](NC(=O)[C@H](C)NC)C(=O)N1C[C@@H](O)C[C@H]1Cc1c(-c2[nH]c3cc(F)ccc3c2C[C@@H]2C[C@H](O)CN2C(=O)[C@H](CC)NC(=O)[C@H](C)NC)[nH]c2cc(F)ccc12 [Birinapant] (max concentration tested 1000 nM)
Details | drug sensitivity score
DERL-7 (IL-2 2.5 ng/mL) [5] | 10.5
IMC-1 (IL-2 20 ng/mL) [13] | 2.52
KAI3 (IL-2 2.5 ng/mL) [2] | 1
KHYG-1 (IL-2 2.5 ng/mL) [8] | 0.34
NK-92 (IL-2 2.5 ng/mL) [3] | 2.35
NK-YS (IL-2 2.5 ng/mL) [6] | 0
NKL (IL-2 2.5 ng/mL) [1] | 3.5
SNK-6 (IL-2 2.5 ng/mL) [12] | 0
YT (IL-2 2.5 ng/mL) [10] | 0
[4] | 3.2
[7] | 3.83
[9] | 1.6
[11] | 3.88
[27] | 3.47

percent inhibition of viability [%]
Details | 0.1 nM | 1 nM | 10 nM | 100 nM | 1000 nM
DERL-7 (IL-2 2.5 ng/mL) [18] | 7.8 | 5.54 | 23.2 | 43.1 | 46.6
IMC-1 (IL-2 20 ng/mL) [26] | -3.47 | 1.41 | -0.22 | 1.34 | 45.6
KAI3 (IL-2 2.5 ng/mL) [15] | 1.71 | -5.41 | -0.72 | 9.21 | 15.7
KHYG-1 (IL-2 2.5 ng/mL) [21] | -2.97 | -5.19 | -7.39 | -1.77 | 17.7
NK-92 (IL-2 2.5 ng/mL) [16] | -4.58 | -12.3 | 5.84 | 11.1 | 31
NK-YS (IL-2 2.5 ng/mL) [19] | -2.88 | -9.14 | -8.38 | -5.45 | -8.45
NKL (IL-2 2.5 ng/mL) [14] | 5.63 | 0.8 | 3.21 | 19.2 | 32.2
SNK-6 (IL-2 2.5 ng/mL) [25] | -1.62 | -1.64 | -7.31 | -10.8 | -16.1
YT (IL-2 2.5 ng/mL) [23] | 1.52 | -1.94 | 2.55 | 4.56 | 2.39
[17] | -6.05 | -7.14 | -11.2 | 2.7 | 53.1
[20] | -23.1 | -28.9 | -10.4 | -2.86 | 73.8
[22] | -4.73 | -7.57 | -8.06 | -3.61 | 38.2
[24] | -9.47 | -11.8 | 3.46 | 0.49 | 69.2
[28] | -2.92 | -0.28 | 2.8 | 10.2 | 38.9
